From US20030207877A1, “Pyridoquinoxaline antivirals” (priority 2001, published 2003)
Values joined by “and” are separate entries in the source; they are usually repeats but may differ in a detail not shown here. Equal entries are not always repeated.

Tests used:
HCMV polymerase = target: T1, HCMV polymerase (Human cytomegalovirus, UniProt P08546); assay: HCMV polymerase assay (scintillation proximity assay), original and modified version; format: biochemical; conditions: SPA; several values per example = repeat determinations, assay version not given; read-out: CMV Polymerase IC50
T1 construct: made in house; host or cells: SF-9 insect cells infected with recombinant baculovirus
T1 sequence (P08546 whole entry): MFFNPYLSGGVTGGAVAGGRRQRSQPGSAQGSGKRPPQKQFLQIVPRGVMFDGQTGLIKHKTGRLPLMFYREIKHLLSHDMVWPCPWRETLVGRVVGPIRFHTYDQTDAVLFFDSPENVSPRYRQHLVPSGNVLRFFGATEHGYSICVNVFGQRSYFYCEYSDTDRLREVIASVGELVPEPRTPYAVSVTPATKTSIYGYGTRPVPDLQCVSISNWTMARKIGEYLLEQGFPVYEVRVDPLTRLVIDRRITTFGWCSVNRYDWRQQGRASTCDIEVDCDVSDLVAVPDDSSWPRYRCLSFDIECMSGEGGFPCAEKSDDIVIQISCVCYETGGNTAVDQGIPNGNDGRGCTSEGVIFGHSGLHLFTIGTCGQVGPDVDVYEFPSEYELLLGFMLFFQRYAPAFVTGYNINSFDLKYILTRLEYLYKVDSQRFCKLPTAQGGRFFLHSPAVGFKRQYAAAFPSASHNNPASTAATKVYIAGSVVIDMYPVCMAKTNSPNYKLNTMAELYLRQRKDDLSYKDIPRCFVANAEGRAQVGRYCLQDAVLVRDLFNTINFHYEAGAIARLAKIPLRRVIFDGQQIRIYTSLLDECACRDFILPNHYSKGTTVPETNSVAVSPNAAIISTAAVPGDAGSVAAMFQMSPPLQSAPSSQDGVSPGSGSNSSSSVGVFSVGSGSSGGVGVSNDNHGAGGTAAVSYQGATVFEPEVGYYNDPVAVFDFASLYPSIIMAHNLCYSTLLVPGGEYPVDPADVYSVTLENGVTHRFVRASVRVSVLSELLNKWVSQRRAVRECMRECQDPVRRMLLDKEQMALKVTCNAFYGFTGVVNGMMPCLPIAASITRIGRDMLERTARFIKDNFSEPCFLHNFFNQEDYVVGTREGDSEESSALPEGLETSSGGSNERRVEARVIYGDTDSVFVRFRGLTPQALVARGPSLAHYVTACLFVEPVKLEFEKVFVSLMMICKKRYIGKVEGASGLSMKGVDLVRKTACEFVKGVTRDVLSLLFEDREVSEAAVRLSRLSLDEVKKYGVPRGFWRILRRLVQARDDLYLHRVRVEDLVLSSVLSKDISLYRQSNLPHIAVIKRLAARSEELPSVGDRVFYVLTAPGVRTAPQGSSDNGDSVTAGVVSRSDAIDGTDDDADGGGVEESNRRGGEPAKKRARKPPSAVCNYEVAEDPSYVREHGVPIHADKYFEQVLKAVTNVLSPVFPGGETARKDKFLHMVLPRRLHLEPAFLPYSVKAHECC
Procedure: The HCMV polymerase assay is performed using a scintillation proximity assay (SPA) as described in several references, such as N.D. Cook, et al., Pharmaceutical Manufacturing International, pages 49-53 (1992); K. Takeuchi, Laboratory Practice, September issue (1992); U.S. Pat. No. 4,568,649 (1986); which are incorporated by reference herein. Reactions are performed in 96-well plates. The assay is conducted in 100 μl volume with 5.4 mM HEPES (pH 7.5), 11.7 MM KCl, 4.5 mM MgCl2, 0.36 mg/ml BSA, and 90 nM ^3H-dTTP. Assays are run with and without CHAPS, (3-[(3-Cholamidopropyl)-dimethylammoniol-1-propane-sulfonate) at a final concentration of 2 mM. HCMV polymerase is diluted in enzyme dilution buffer containing 50% glycerol, 250 mM NaCl, 10 mM HEPES (pH 7.5), 100 μg/ml BSA, and 0.01% sodium azide. The HCMV polymerase, which is expressed in recombinant baculovirus-infected SF-9 cells and purified according to literature procedures, is added at 10% (or 10 μl) of the final reaction volume, i.e., 100 μl. Compounds are diluted in 50% DMSO and 10 μl are added to each well. Control wells contain an equivalent concentration of DMSO. Unless noted otherwise, reactions are initiated via the addition of 6 nM biotinylated poly(dA)-oligo(dT) template/primer to reaction mixtures containing the enzyme, substrate, and compounds of interest. Plates are incubated in a 25° C. or 37° C. H2O bath and terminated via the addition of 40 μl/reaction of 0.5 M EDTA (pH 8) per well. Reactions are terminated within the time-frame during which substrate incorporation is linear and varied depending upon the enzyme and conditions used, i.e., 30 min. for HCMV polymerase. Ten (10) μl of streptavidin-SPA beads (20 mg/ml in PBS/10% glycerol) are added following termination of the reaction. Plates are incubated 10 min. at 37° C., then equilibrated to room temperature, and counted on a Packard Topcount. Linear regressions are performed and IC50's are calculated using computer software.
A modified version of the above HCMV polymerase assay is performed as described above, but with the following changes: Compounds are diluted in 100% DMSO until final dilution into assay buffer. In the previous assay, compounds are diluted in 50% DMSO. 4.5 mM dithiotherotol (DTT) is added to the polymerase buffer.

Alpha Polymerase = target: T2, Alpha Polymerase (Homo sapiens, UniProt P09884); assay: Alpha polymerase inhibition (selectivity); format: biochemical
T2 sequence (P09884 1-1462): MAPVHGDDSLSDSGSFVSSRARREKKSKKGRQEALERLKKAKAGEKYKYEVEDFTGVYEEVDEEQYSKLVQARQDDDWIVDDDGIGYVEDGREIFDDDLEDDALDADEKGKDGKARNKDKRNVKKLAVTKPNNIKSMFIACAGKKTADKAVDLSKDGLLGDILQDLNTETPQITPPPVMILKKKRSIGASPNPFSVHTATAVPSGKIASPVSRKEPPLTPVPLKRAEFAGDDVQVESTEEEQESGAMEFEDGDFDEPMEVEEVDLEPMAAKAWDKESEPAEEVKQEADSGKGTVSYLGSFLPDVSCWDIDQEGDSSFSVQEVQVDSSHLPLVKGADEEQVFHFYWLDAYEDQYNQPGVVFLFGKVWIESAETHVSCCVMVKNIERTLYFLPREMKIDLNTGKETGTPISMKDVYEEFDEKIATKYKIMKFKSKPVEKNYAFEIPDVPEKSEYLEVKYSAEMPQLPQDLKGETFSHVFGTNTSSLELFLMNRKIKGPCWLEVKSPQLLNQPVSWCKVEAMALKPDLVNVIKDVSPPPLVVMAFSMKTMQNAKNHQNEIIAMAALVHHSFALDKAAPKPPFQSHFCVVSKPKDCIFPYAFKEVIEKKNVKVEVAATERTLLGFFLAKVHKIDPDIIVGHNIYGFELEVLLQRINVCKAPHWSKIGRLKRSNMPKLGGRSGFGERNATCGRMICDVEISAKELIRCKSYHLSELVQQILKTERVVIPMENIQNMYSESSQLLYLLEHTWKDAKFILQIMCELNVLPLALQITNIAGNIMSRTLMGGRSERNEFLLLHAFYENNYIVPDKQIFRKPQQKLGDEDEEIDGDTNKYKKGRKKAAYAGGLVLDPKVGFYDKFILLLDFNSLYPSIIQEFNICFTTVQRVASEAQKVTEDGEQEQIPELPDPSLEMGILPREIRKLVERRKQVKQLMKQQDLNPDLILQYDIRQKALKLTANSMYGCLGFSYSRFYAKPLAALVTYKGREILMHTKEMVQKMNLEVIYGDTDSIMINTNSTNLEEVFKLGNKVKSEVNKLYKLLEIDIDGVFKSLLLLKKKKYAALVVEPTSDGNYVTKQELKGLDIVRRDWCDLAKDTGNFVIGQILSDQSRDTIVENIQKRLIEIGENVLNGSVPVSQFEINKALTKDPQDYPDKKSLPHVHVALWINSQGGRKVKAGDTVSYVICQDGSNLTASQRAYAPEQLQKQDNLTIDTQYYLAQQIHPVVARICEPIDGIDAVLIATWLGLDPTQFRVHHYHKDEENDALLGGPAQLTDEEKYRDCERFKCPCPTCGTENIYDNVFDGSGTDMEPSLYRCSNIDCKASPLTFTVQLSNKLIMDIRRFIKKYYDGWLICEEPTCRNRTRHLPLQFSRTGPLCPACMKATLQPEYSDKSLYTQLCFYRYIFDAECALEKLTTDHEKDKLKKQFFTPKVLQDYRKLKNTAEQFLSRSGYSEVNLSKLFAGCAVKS

For `CN(Cc1cc2c3c(c1)c(=O)c(C(=O)NCc1ccc(Cl)cc1)cn3CC(=O)N2C)CC(O)c1ccc2ccccc2n1` (racemic) [Example 16, rac N-(4-chlorobenzyl)-9-{([2-hydroxy-2-quinolin-2-ylethyl](methyl)amino)methyl 1-1-methyl-2,7-dioxo-2,3-dihydro-1H,7H-pyrido[1,2,3-de]quinoxaline-6-carboxamide], the IC50 (HCMV polymerase) was 48 nM and 36 nM, the IC50 (Alpha Polymerase) was greater than 20000 nM and the melting point was 173 to 177 °C.

For `CN(Cc1cc2c3c(c1)c(=O)c(C(=O)NCc1ccc(F)cc1)cn3CC(=O)N2C)CC(O)c1cc2ccccc2o1` (racemic) [Example 33, rac 9-{[[2-(1-benzofuran-2-yl)-2-hydroxyethyl](methyl)amino]methyl}-N-(4-fluorobenzyl)-1-methyl-2,7-dioxo-2,3-dihydro-1H,7H-pyrido[1,2,3-de]quinoxaline-6-carboxamide], the IC50 (HCMV polymerase) was 32 nM, the IC50 (Alpha Polymerase) was 4390 nM and the melting point was 161 to 163 °C.

With `CN(Cc1cc2c3c(c1)c(=O)c(C(=O)NCc1ccc(Cl)cc1)cn3CC(=O)N2C)C[C@@H](O)c1ccco1` [Example 11, N-(4-chlorobenzyl)-9-{[[(2R)-2-(2-furyl)-2-hydroxyethyl](methyl)amino]methyl}-1-methyl-2,7-dioxo-2,3-dihydro-1H,7H-pyrido[1,2,3-de]quinoxaline-6-carboxamide] the IC50 (HCMV polymerase) was 110 nM and 46 nM, the IC50 (Alpha Polymerase) was greater than 20000 nM and the melting point was 119 to 120 °C.

With `CN(Cc1cc2c3c(c1)c(=O)c(C(=O)NCc1ccc(Cl)cc1)cn3CC(=O)N2C)C[C@@H](O)c1cccnc1` [Example 13, N-(4-chlorobenzyl)-9-{[[(2S)-2-hydroxy-2-pyridin-3-ylethyl](methyl)amino]methyl}-1-methyl-2,7-dioxo-2,3-dihydro-1H,7H-pyrido[1,2,3-de]quinoxaline-6-carboxamide] the IC50 (HCMV polymerase) was 150 nM and 76 nM, the IC50 (Alpha Polymerase) was greater than 20000 nM and the melting point was 131 to 135 °C.

In the case of `CN(Cc1cc2c3c(c1)c(=O)c(C(=O)NCc1ccc(Cl)cc1)cn3CC(=O)N2C)C[C@@H](O)c1cnccn1` [Example 21, N-(4-chlorobenzyl)-9-{[[(2R)-2-hydroxy-2-pyrazin-2-ylethyl](methyl)amino]methyl}-1-methyl-2,7-dioxo-2,3-dihydro-1H,7H-pyrido[1,2,3-de]quinoxaline-6-carboxamide], the IC50 (HCMV polymerase) is reported as 160 nM and 120 nM, the IC50 (Alpha Polymerase) is reported as greater than 10000 nM and the melting point is reported as 97 to 98 °C.
